# Assay results as given in patent US20060281807A1, “Quassinoid compositions for the treatment of cancer and other proliferative diseases” (Tapestry Pharmaceuticals, Inc., priority 2005, published 2006).
# Where “and” joins values, the source holds several entries; their conditions need not be identical. Equal values may be shown once.
# How the values were obtained:
# [1] = tested on: NCI-AR; assay: MTT cytotoxicity assay (% kill), NCI-AR; assay type: cell-based, human; details: 1 h exposure
# Description: (§1) The following human tumor cell lines were obtained and cultured in sextuplicate microwells at 37° C. and 5% CO2 in humidified air and in 10% FBS in Eagles MEM: SK—N—FI, SK—N-AS, LS-174T, WiDr, HuTu-80, MCF7, NCI-AR, MES-Sar, and PL-45. Cells from each cell line were separately treated with an amount of one of the compounds of Formula I, II, or III (see Table 1). Cells were exposed to each compound (0.1 μg/mL or 1.0 μg/mL) for one hour or 24 hours, rinsed with drug-free media, and incubated for an additional five days. The number of viable cells after five days was measured using an MTT (3-(4,5-dimethylthiazol-2-yl)-2,5-diphenyltetrazolium bromide) assay (see, e.g., Mosmann, J. Immunol. Methods, 65(1-2), 55-63 (1983)).
# (§2) The cytotoxicity of each drug was determined and expressed as the percent of cells killed (“% kill”).
# [2] = tested on: SK-N-AS; assay: MTT cytotoxicity assay (% kill), SK-N-AS; assay type: cell-based, human; details: 1 h exposure, MTT after five days
# Method in brief: (§3)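 Cells grown in 10% FBS Eagles MEM at 37 °C, 5% CO2, sextuplicate wells, exposed to compound at 0.1 or 1.0 μg/mL for 1 h or 24 h. After rinsing, they were cultured 5 more days. Viable cells then measured by MTT, expressed as % kill.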
# [3] = tested on: PL-45; assay: MTT cytotoxicity assay (% kill), PL-45; assay type: cell-based, human; details: 1 h exposure
# Description: as §1, §2
# [4] = tested on: MCF7; assay: MTT cytotoxicity assay (% kill), MCF7; assay type: cell-based, human; details: 1 h exposure
# Description: as §1, §2
# [5] = tested on: LS-174T; assay: MTT cytotoxicity assay (% kill), LS-174T; assay type: cell-based, human; details: 1 h exposure, MTT after five days
# Method in brief: as §3
# [6] = tested on: HuTu-80; assay: MTT cytotoxicity assay (% kill), HuTu-80; assay type: cell-based, human; details: 1 h exposure
# Description: as §1, §2
# [7] = tested on: tumor cells; assay: Inhibition of tumor growth in vivo (% T/C) in SCID mice
# Description: SCID mice weighing more than 17 grams were supplied food and water ad libidum. The animals were pooled, implanted subcutaneously with tumor cells, and pooled again before distribution to treatment and control groups. Treatment was started when the tumors were palpable (i.e., 10 days after inoculation). Mice received one of four doses (i.e., 1.6, 1.2, 0.8, and 0.4 mg/mouse) of the inventive compound. Each dose was administered intravenously via the tail vein once per day for 5 days. Mice were killed when their tumors reached 1500 mm^3.
# Tumor weights were estimated from two-dimensional caliper measurements performed twice a week according to the following formula: Tumor Weight (mg)=(a×b^2)/2 in which a and b are the tumor length and width, respectively, in millimeters.
# Therapeutic efficacy was measured as the % T/C value (T=treated, C=control), which was determined each time a tumor measurement was made. The median tumor weight of the treatment and control groups was determined. A % T/C value equal to or less than 50% indicates antitumor activity. A % T/C value of <10% indicates highly significant antitumor activity, and is the level used by the National Cancer Institute (NCI) to justify a clinical trial if toxicity, formulation and other requirements are met. A weight loss of greater than 20% (mean of group) or greater than 20% drug deaths indicates an excessively toxic dose.
# [8] = tested on: Colon 38 (murine colon adenocarcinoma); assay: Disk diffusion assay, zone of inhibition, Colon 38; zone differentials, potency and product; assay type: cell-based; parameters: key to C38ΔL1210 / C38ΔCFU: difference of zone of inhibition values, in zone units; details: for zone of inhibition, Colon 38: 1 mg/mL; for Sum: C38ΔL1210 plus C38ΔCFU; for C38ΔL1210: Colon38 vs L1210 leukemia
# Method in brief: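 Dissociated Colon 38 cells were plated in soft agar over a hard agar layer; 15 µl of compound dilution dried on a 6.5 mm disk was placed on the plate, and incubation ran 7–10 days. Inhibition zone was measured from disk edge to normal colonies, with the disk diameter = 200 units. Potency = dilution giving 500 units; the product multiplies it by the differentials against L1210 or CFU-GM.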
# [9] = tested on: WiDr; assay: MTT cytotoxicity assay (% kill), WiDr; assay type: cell-based, human; details: 0.1 μg/mL, 1 h exposure
# Description: as §1, §2
# [10] = tested on: MES-Sar; assay: MTT cytotoxicity assay (% kill), MES-Sar; assay type: cell-based, human; details: 1 h exposure
# Description: as §1, §2
# [11] = no dilution, 15 μl on disk, 6.5 mm = 200 units
# [12] = difference between zone of inhibition values
smiles,measurement,setting,value
COC(=O)[C@@]12OC[C@@]34C1[C@@H](OC(=O)CC(O)(C(C)C)C(C)C)C(=O)O[C@@H]3C[C@H]1C(C)=C(O)C(=O)C[C@]1(C)[C@H]4[C@@H](O)[C@@H]2O (stereo partly drawn) [15-O-(3′-hydroxy-3′-isopropyl-4′-methylpentanoyl)bruceolide],"% kill, NCI-AR",[1]; 0.1 μg/mL,0%
same,"% kill, NCI-AR",[1]; 1.0 μg/mL,0%
same,"% Kill, SK-N-AS",[2]; 0.1 μg/mL,0%
same,"% Kill, SK-N-AS",[2]; 1.0 μg/mL,3%
same,"% kill, PL-45",[3]; 0.1 μg/mL,0%
same,"% kill, PL-45",[3]; 1.0 μg/mL,0%
same,"% kill, MCF7",[4]; 0.1 μg/mL,12%
same,"% kill, MCF7",[4]; 1.0 μg/mL,31%
same,"% Kill, LS-174T",[5]; 0.1 μg/mL,0%
same,"% Kill, LS-174T",[5]; 1.0 μg/mL,13%
same,"% kill, HuTu-80",[6]; 0.1 μg/mL,0%
same,"% kill, HuTu-80",[6]; 1.0 μg/mL,7%
same,% T/C,[7]; 0.4 mg/mouse intravenously once per day for 5 days (lower dose group),31%
same,% T/C,[7]; 0.8 mg/mouse intravenously once per day for 5 days (higher dose group of the surviving two),16%
same,mortality,[7]; highest two doses (1.6 and 1.2 mg/mouse) intravenously once per day for 5 days,died
same,"zone of inhibition, Colon 38",[8]; dilution 1/10,>1000 units
same,"zone of inhibition, Colon 38",[8]; dilution 1/100,750 units and 600 units and 500 units
same,"zone of inhibition, Colon 38",[8]; dilution 1/400,300 units
same,"zone of inhibition, Colon 38",[8]; dilution 1/1000,400 units and 250 units
same,"zone of inhibition, Colon 38",[8]; [11],>1000 units
same,Sum,[8],750 and 1450
same,C38ΔL1210,[8]; [12],400 and 550
same,"% kill, WiDr",[9],0%
same,"% kill, MES Sar",[10]; 0.1 μg/mL,0%
same,"% kill, MES Sar",[10]; 1.0 μg/mL,0%
COC(=O)[C@@]12OC[C@@]34C1[C@@H](OC(=O)C=C(C(C)C)C(C)C)C(=O)O[C@@H]3C[C@H]1C(C)=C(O)C(=O)C[C@]1(C)[C@H]4[C@@H](O)[C@@H]2O (stereo partly drawn) [15-O-(3′-isopropyl-4′-methyl-2′-pentenoyl)-bruceolide],"zone of inhibition, Colon 38",[8]; dilution 1/10,>1000 units
same,"zone of inhibition, Colon 38",[8]; dilution 1/100,850 units and 650 units
same,"zone of inhibition, Colon 38",[8]; dilution 1/1000,450 units
same,"zone of inhibition, Colon 38",[8]; [11],>1000 units
same,Sum,[8],750
same,C38ΔL1210,[8]; [12],300
same,C38ΔCFU,"[8]; difference between zone of inhibition values, Colon38 vs normal cell CFU-GM",450
same,Product,[8]; potency multiplied by zone differentials,4500
